For assay [1] the following is noted: N. Pant et al and P. M. Booth et al; cited from earlier work.
The subject of assay [2] is two strains of S. aureus and S. epidermidis low sensitive to teicoplanin. The assay is described as follows: Activity relative to teicoplanin (from MIC). The format is cell-based. On the procedure: (§1) The antimicrobial activity, expressed as minimal inhibitory concentration (MIC), of the hexapeptide of formula (I), R=hydrogen, against selected strains of Gram-positive bacteria was determined in comparison with teicoplanin. The microdilution method in DIFCO TODDO-HEWITT broth (Streptococci) or OXOID ISO-SENSITEST broth (Staphylococci) was used.

For assay [3], the system named is Staph. haemolyticus clin. isolate (TLS). The assay is described as follows: In vitro MIC, microdilution method in broth. The note with it: inoculum 10^5 cfu/ml, 18-24 hours at 37° C. The format is cell-based. Here is the method:
as §1
(§2) TLS = Low Sensitive to Teicoplanin
(§3) *Inoculum: 10^5 cfu/ml.

A further assay concerns Staph. epidermidis (TLS). Description: In vitro MIC, microdilution method in broth. The format is cell-based. The note with it: Staph. epidermidis (TLS = Low Sensitive to Teicoplanin); inoculum 10^5 cfu/ml; 18-24 hours at 37° C. Here is the method: as §1, §2, §3
For orientation: Dilution methods test growth across graded concentrations, often in twofold steps.

Another assay deals with Staph. aureus (TLS). The assay is described as follows: In vitro MIC, microdilution method in broth. To be noted: Staph. aureus (TLS = Low Sensitive to Teicoplanin); inoculum 10^5 cfu/ml; 18-24 hours at 37° C. It counts as cell-based. On the procedure:
as §1, §2, §3

In a further assay the test system is Strep. pyogenes C 203. Description: In vitro MIC, microdilution method in broth. The format is cell-based. The note with it: DIFCO TODDO-HEWITT broth, inoculum 10^5 cfu/ml, 18-24 hours at 37° C. On the procedure:
as §1, §3

Assay [4] relates to Staph. epidermidis ATCC 12228. Description: In vitro MIC, microdilution method in broth. The format is cell-based. The note with it: inoculum 10^5 cfu/ml, 18-24 hours at 37° C. On the procedure: as §1, §3
Assay [5] deals with Entero. faecalis ATCC 7080. Description: In vitro MIC, microdilution method in broth. To be noted: inoculum 10^5 cfu/ml, 18-24 hours at 37° C. It counts as cell-based. On the procedure: as §1, §3
For a further assay, the system named is Staph. aureus Tour. The assay is described as follows: In vitro MIC, microdilution method in broth. The format is cell-based. To be noted: OXOID ISO-SENSITEST broth, inoculum 10^5 cfu/ml, 18-24 hours at 37° C. On the procedure:
as §1, §3

The next assay concerns Strep. pneumoniae UC 41. Description: In vitro MIC, microdilution method in broth. It counts as cell-based. To be noted: DIFCO TODDO-HEWITT broth, inoculum 10^5 cfu/ml, 18-24 hours at 37° C. Here is the method: as §1, §3

As to Aglucovancomycin Hexapeptide, in [1], the Biological activity entry is “inactivity”.

For the substance “aglucoteicoplanin hexapeptide [Example 1]”, the “Activity compared with teicoplanin” value in assay [2] is reported as “four to sixteen times more active”. Besides, the MIC (as a rule, the least concentration at which growth counts as inhibited) was 16 µg/mL in assay [3]; 1 µg/mL in the assay with Staph. epidermidis (TLS); 2 µg/mL in the assay with Staph. aureus (TLS); 8 µg/mL with Strep. pyogenes C 203; 0.5 µg/mL in assay [4]; 8 µg/mL in [5]. In addition, the MIC against Staph. aureus Tour worked out at 2 µg/mL; against Strep. pneumoniae UC 41, 4 µg/mL.

For teicoplanin, the MIC in assay [3] came out at 16 µg/mL; against Staph. epidermidis (TLS) it was 16 µg/mL; against Staph. aureus (TLS), 8 µg/mL; against Strep. pyogenes C 203 it was 0.063 µg/mL; in [4], 0.5 µg/mL; in assay [5] it was 0.125 µg/mL. Besides, the MIC with Staph. aureus Tour was 0.5 µg/mL; in the assay on Strep. pneumoniae UC 41, 0.063 µg/mL.

vancomycin hexapeptide: the Biological activity entry in assay [1] is reported as “inactivity”.

Values taken from patent US5438117A, “Hexapeptides deriving from aglucoteicoplanin and a process for preparing them” (Gruppo Lepetit S.p.A., priority 1990, dated 1995).
